Values joined by “and” are separate entries in the source; they are usually repeats but may differ in a detail not shown here. Equal entries are not always repeated.

Experimental findings from ChEMBL document CHEMBL1125358, “Effect of conformational mobility and hydrogen-bonding interactions on the selectivity of some guanidinoaryl-substituted mechanism-based inhibitors of trypsin-like serine proteases” (J Med Chem, 1992) are described below.

The target of assay [1] is T1, Urokinase-type plasminogen activator (Homo sapiens, UniProt P00749). As to the kind of experiment: Compound was tested for its binding affinity against the enzyme Urokinase-type plasminogen activator.
The target of assay [2] is T1, Urokinase-type plasminogen activator. The assay is described as follows: Compound was tested for the rate constant of deacylation against the enzyme Urokinase-type plasminogen activator.
The target in assay [3] is T2, Serine protease 1 (Bos taurus, UniProt P00760).
T2 sequence (P00760 whole entry): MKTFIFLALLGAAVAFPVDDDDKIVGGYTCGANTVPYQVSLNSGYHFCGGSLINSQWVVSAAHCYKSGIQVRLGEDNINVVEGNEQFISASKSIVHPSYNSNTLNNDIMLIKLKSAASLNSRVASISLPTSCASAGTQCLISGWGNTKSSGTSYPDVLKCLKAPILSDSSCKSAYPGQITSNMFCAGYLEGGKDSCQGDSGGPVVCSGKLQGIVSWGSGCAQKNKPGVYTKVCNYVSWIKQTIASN
As to the kind of experiment: Compound was tested for its binding affinity against the enzyme trypsin.

In assay [4] the target is T3, Chymotrypsinogen A (Bos taurus, UniProt P00766). As to the kind of experiment: Compound was tested for its binding affinity against the enzyme alpha-chymotrypsin.
Assay [5] deals with T1, Urokinase-type plasminogen activator. As to the kind of experiment: Compound was tested for the rate constant of deacylation against Urokinase-type plasminogen activator.
For assay [6], the target named is T4, Prothrombin (Homo sapiens, UniProt P00734). As to the kind of experiment: Compound was tested for its binding affinity against the enzyme thrombin.
Assay [7] has as its target T5, Serine protease 1 (Bos taurus) (UniProt P00760).
T5 sequence (whole entry): T2 sequence (P00760 whole entry)

The target of assay [8] is T4, Prothrombin. As to the kind of experiment: Compound was tested for the rate constant of acylation against the enzyme thrombin.
Assay [9] has as its target T1, Urokinase-type plasminogen activator.
Description: Compound was tested for the rate constant of acylation against the enzyme Urokinase-type plasminogen activator
Assay [10] deals with Tissue-type plasminogen activator (Homo sapiens, UniProt P00750). As to the kind of experiment: Compound was tested for its binding affinity against the enzyme Tissue plasminogen activator.
Assay [11] concerns the target T6, Plasminogen (Homo sapiens, UniProt P00747). As to the kind of experiment: Compound was tested for the rate constant of acylation against the enzyme plasmin.
The target in assay [12] is T4, Prothrombin. As to the kind of experiment: Compound was tested for the rate constant of deacylation against thrombin.
The target in assay [13] is T6, Plasminogen. As to the kind of experiment: Compound was tested for its binding affinity against the enzyme plasmin.
For assay [14], the target named is T6, Plasminogen. As to the kind of experiment: Compound was tested for the rate constant for deacylation against plasmin; kd was too fast to measure.
The target in assay [15] is T2, Serine protease 1. The assay is described as follows: Compound was tested for the rate constant of deacylation against the enzyme trypsin.
Assay [16] has as its target T1, Urokinase-type plasminogen activator. The assay is described as follows: Compound was tested for the rate constant of deacylation against Urokinase-type plasminogen activator.
Another assay deals with T7, Trypsin II (Bos taurus) (UniProt Q29463).
T7 sequence (whole entry): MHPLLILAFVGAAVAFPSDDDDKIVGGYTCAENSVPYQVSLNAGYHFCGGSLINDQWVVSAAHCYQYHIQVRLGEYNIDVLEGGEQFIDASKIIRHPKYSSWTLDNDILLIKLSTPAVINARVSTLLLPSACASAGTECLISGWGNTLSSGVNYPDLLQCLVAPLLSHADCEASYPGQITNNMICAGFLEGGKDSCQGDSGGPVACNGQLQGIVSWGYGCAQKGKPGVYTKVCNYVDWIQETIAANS
As to the kind of experiment: Compound was tested for the rate constant of acylation against the enzyme trypsin.

Assay [17] has as its target T3, Chymotrypsinogen A. As to the kind of experiment: Compound was tested for the rate constant of deacylation against alpha-chymotrypsin; kd was too fast to measure.
Assay [18] addresses T1, Urokinase-type plasminogen activator. The assay is described as follows: Compound was tested for the rate constant of deacylation against the enzyme Urokinase-type plasminogen activator; kd was too fast to measure.

T6 sequence (P00747 97-580 limits assumed): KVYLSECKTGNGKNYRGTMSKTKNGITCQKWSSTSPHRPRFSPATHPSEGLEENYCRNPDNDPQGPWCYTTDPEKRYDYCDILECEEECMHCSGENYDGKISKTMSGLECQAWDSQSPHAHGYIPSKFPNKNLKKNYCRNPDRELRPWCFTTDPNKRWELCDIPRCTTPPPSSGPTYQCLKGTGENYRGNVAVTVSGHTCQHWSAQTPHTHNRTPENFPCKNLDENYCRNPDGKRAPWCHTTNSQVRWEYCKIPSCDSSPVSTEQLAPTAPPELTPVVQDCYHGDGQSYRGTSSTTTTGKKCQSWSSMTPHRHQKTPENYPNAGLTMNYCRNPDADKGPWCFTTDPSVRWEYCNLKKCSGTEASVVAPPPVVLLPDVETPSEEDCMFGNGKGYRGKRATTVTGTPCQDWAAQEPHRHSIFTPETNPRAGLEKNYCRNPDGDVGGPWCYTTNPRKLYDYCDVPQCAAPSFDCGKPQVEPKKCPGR
T6 sequence (P00747 581-810 limits assumed): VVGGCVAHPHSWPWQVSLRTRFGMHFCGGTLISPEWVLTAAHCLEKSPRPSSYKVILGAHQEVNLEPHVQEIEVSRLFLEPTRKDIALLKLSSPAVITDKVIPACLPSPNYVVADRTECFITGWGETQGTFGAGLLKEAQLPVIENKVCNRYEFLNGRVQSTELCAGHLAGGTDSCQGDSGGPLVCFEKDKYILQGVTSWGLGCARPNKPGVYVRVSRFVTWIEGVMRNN
Sequence of Tissue-type plasminogen activator (P00750 whole entry): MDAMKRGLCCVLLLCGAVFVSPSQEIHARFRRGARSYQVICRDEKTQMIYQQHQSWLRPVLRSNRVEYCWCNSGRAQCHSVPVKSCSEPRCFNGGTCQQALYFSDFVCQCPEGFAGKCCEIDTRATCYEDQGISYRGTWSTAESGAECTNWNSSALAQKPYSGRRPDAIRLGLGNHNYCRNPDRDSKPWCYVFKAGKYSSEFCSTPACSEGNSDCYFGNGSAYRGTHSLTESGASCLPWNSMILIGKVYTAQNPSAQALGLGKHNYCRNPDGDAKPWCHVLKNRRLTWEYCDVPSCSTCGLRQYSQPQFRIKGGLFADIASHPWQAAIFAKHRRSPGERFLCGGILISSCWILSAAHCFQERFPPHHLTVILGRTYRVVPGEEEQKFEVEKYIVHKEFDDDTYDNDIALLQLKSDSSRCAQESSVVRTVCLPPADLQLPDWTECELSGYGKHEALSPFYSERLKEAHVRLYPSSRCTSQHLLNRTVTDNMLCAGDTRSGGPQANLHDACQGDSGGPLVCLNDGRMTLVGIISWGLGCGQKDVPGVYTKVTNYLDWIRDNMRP

In the case of `N=C(N)Nc1ccc(C2C/C(=C/I)OC(=O)C2NC(=O)c2ccccc2)cc1` (centres undefined), the Ki (as a rule, a measure of affinity in units of concentration, obtained from inhibition or displacement) was 18.7 µM in assay [1]; 0.67 µM and 2.76 µM on Serine protease 1 [3]; 170 nM at Chymotrypsinogen A [4]. Besides, the Kd in assay [2] and in assay [5] was 0.0008 min⁻¹ in each case.
For `N=C(N)NCc1ccc(C2CC/C(=C/I)OC2=O)cc1` (centres undefined), the Ki is 14.8 µM at Prothrombin [6], 120 nM in assay [10], 0.08 µM at Serine protease 1 [3] and 1.19 µM on Plasminogen [13]. Moreover, the Ka in assay [7] was 18.4 min⁻¹; on Prothrombin [8], 27.2 min⁻¹; in assay [9] it was 7.56 min⁻¹; on Plasminogen [11], 10.2 min⁻¹. The molecule further had a Kd at Prothrombin [12] of 0.013 min⁻¹.
Turning to `C=C1CCC(c2ccc(CNC(=N)N)cc2)C(=O)O1` (centres undefined), the inhibition constant (Ki) in assay [1] amounted to 0.35 µM; at Prothrombin [6], 37.9 µM; on Plasminogen [13] it was 466 µM. For the same molecule, the Ka was determined as 5.58 min⁻¹ on Prothrombin [8], 9.8 min⁻¹ in assay [9] and 57 min⁻¹ at Plasminogen [11]. The Kd result on Plasminogen [14] was “Fast”; in assay [2] it was 0.044 min⁻¹; at Prothrombin [12], 0.006 min⁻¹.
On to `C=C1CC(c2ccc(NC(=N)N)cc2)C(NC(=O)c2ccccc2)C(=O)O1` (centres undefined), for which the Ki is 10 µM at Serine protease 1 [3] and 460 nM on Chymotrypsinogen A [4]. The Kd at Serine protease 1 [15] is 0.015 min⁻¹; in assay [16], 0.002 min⁻¹; at Chymotrypsinogen A [17], “Fast”. At Trypsin II (Bos taurus), this molecule showed a Ka of 10.2 min⁻¹.
For the molecule `C=C1CC(c2ccc(NC(=N)N)cc2)CC(=O)O1` (centres undefined), the Ki in [1] was determined as 0.12 µM; at Serine protease 1 [3], 9.4 µM. Moreover, the Kd on Serine protease 1 [15] was 0.002 min⁻¹; in [16], 0.009 min⁻¹.
Turning to `N=C(N)Nc1ccc(C2CC(=O)O/C(=C\I)C2)cc1` (centres undefined), the Ki in [1] is 7.83 µM; at Serine protease 1 [3] it was 4.28 µM. Further, the Ka in assay [7] came out at 0.54 min⁻¹; in assay [9] it was 2.61 min⁻¹. For the same molecule, the Kd result is “Fast” in assay [18] and 0.02 min⁻¹ at Serine protease 1 [15].
